Data as given in the supplement of paper PMC10307832.

Experiments:
Experiment in all cases: relative viability (nuclei count vs DMSO), 5 days (fraction); higher = more cells survive
[1] = compound: CC1=NC=CC(=C1)C2=CC=C(C=C2)CC(=O)NC3=CC=C(C=C3)C4=CN=CC=C4 [Wnt-C59]
Summary of the method: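 Cells of lung cancer lines were placed in 1536-well plates and kept overnight at 37 °C. Pinning then delivered five library-drug doses (not always all listed), spaced by √10, onto plates anchored with vehicle, and the cells were left 5 days without changing medium. One step fixed, permeabilised and stained them with Hoechst, and MetaXpress counted nuclei in 4× images. Viability, as a median over plates, is treated-well nuclei divided by vehicle-well nuclei, with acceptance only at control CV below 25% and at least one doubling.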

[2] = compound: CC1=NC=CC(=C1)C2=CC=C(C=C2)CC(=O)NC3=CC=C(C=C3)C4=CN=CC=C4 [Wnt-C59] + CC(=O)c1c(C)c2cnc(Nc3ccc(N4CCNCC4)cn3)nc2n(C2CCCC2)c1=O [Palbociclib] (partner 0.5 µM)
Summary of the method: (§1)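 Five library-drug doses in √10 steps were combined with a fixed anchor-drug dose, or a single drug was given alone, by pin tool to lung cancer cell lines in 1536-well plates the day after seeding. Nuclei were stained and counted after 5 days. Relative viability is the nuclei count in treated wells over that in vehicle wells, taken as the median of duplicate plates.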

[3] = compound: CS(=O)(=O)CCNCc1ccc(-c2ccc3ncnc(Nc4ccc(OCc5cccc(F)c5)c(Cl)c4)c3c2)o1 [Lapatinib] + Cc1cc(Nc2cc(N3CCN(C)CC3)nc(Sc3ccc(NC(=O)C4CC4)cc3)n2)n[nH]1 [Tozasertib] (partner 0.1 µM)
Summary of the method: as §1

[4] = compound: CS(=O)(=O)CCNCc1ccc(-c2ccc3ncnc(Nc4ccc(OCc5cccc(F)c5)c(Cl)c4)c3c2)o1 [Lapatinib] + CC(C)C[C@H](NC(=O)[C@H](Cc1ccccc1)NC(=O)c1cnccn1)B(O)O [Bortezomib] (partner 0.002 µM)
Summary of the method: as §1

| Cell Line | relative viability ([1]; 0.001 µM) | relative viability ([1]; 0.01 µM) | relative viability ([1]; 0.03162 µM) | relative viability ([1]; 0.1 µM) | relative viability ([2]; first compound 0.001 µM) | relative viability ([2]; first compound 0.01 µM) | relative viability ([2]; first compound 0.03162 µM) | relative viability ([2]; first compound 0.1 µM) | relative viability ([3]; first compound 0.02 µM) | relative viability ([3]; first compound 0.06325 µM) | relative viability ([3]; first compound 0.2 µM) | relative viability ([3]; first compound 0.6325 µM) | relative viability ([3]; first compound 2 µM) | relative viability ([4]; first compound 0.02 µM) | relative viability ([4]; first compound 0.06325 µM) | relative viability ([4]; first compound 0.2 µM) | relative viability ([4]; first compound 0.6325 µM) | relative viability ([4]; first compound 2 µM) |
| --- | --- | --- | --- | --- | --- | --- | --- | --- | --- | --- | --- | --- | --- | --- | --- | --- | --- | --- |
| NCI-H1651 | 0.985 | 0.998 | 0.997 | 1 | 0.526 | 0.499 | 0.452 | 0.479 | 0.541 | 0.622 | 0.508 | 0.443 | 0.325 | 0.994 | 0.93 | 0.819 | 0.859 | 0.963 |
| NCI-H2085 | 1.02 | 0.98 | 1 | 0.953 | 0.459 | 0.425 | 0.477 | 0.471 | – | 0.748 | 0.73 | 0.532 | 0.337 | 0.667 | 0.979 | 0.998 | 0.994 | 1.02 |
| EKVX | 1.03 | 0.759 | 1.01 | 0.832 | 0.389 | – | 0.327 | 0.179 | 0.366 | 0.333 | 0.448 | 0.273 | 0.143 | 0.888 | 0.862 | 0.914 | 0.634 | 0.161 |
| NCI-H1437 | 0.997 | 0.997 | 1 | 1.03 | 0.31 | 0.309 | 0.336 | 0.335 | 0.388 | 0.411 | 0.378 | 0.347 | 0.367 | 0.523 | 0.46 | 0.421 | 0.394 | 0.39 |
| BEN | 0.936 | 1 | 1.02 | 1.07 | 0.477 | 0.437 | 0.538 | 0.534 | – | 0.513 | 0.51 | 0.515 | 0.351 | 0.665 | 0.783 | 0.637 | 0.781 | 0.608 |
| NCI-H1666 | 0.993 | 0.92 | 0.951 | 0.967 | 0.658 | 0.654 | 0.616 | 0.647 | 0.598 | 0.577 | 0.573 | 0.453 | 0.36 | 0.761 | 0.619 | 0.848 | 0.877 | 0.378 |
| LCLC-103H | 0.959 | 0.986 | 0.987 | 1.03 | 0.462 | 0.509 | 0.487 | 0.472 | 0.419 | 0.448 | 0.455 | 0.407 | 0.384 | – | 1.03 | 1.13 | 1.06 | 1.04 |
| NCI-H2009 | 0.997 | 0.999 | 1 | 0.992 | 0.231 | 0.149 | 0.198 | 0.239 | 0.732 | 0.633 | 0.78 | 0.714 | 0.492 | 0.754 | 0.968 | 1.06 | 1.04 | 1.08 |
| LOU-NH91 | 0.978 | 0.892 | 0.955 | 1.04 | 0.512 | 0.573 | 0.564 | 0.513 | 0.643 | 0.504 | 0.524 | 0.51 | 0.427 | – | 0.469 | 0.522 | 0.499 | 0.544 |
| NCI-H441 | 1.11 | 1.22 | 1.1 | 0.993 | 0.265 | 0.206 | 0.247 | 0.237 | – | 0.551 | 0.491 | 0.462 | 0.454 | – | 0.628 | 0.45 | 0.379 | 0.657 |
| NCI-H661 | 0.961 | 1.01 | 1.08 | 0.99 | 0.409 | 0.357 | 0.436 | 0.387 | 0.377 | 0.367 | 0.358 | 0.348 | 0.352 | 0.703 | 0.756 | 0.674 | 0.618 | 0.482 |
| NCI-H1355 | 1.02 | 0.885 | 1.01 | 0.905 | 0.408 | 0.375 | 0.408 | 0.375 | – | 0.416 | 0.498 | 0.494 | 0.26 | – | 0.954 | 1.13 | 1.2 | 0.573 |
| HCC-366 | 0.993 | 0.997 | 1.06 | 0.976 | 0.461 | 0.376 | 0.402 | 0.386 | – | 0.0794 | 0.0593 | 0.0794 | 0.0545 | – | 1.03 | 1.06 | 0.992 | 0.935 |
| COR-L23 | 0.961 | 1.01 | 1.07 | 0.963 | 0.347 | 0.279 | 0.321 | 0.264 | 0.149 | 0.131 | 0.152 | 0.165 | 0.109 | 0.948 | 1.07 | 1.08 | 0.934 | 0.998 |
| PC-14 | 1.09 | 1.1 | 1 | 1 | 0.688 | 0.496 | 0.552 | 0.506 | – | 0.604 | 0.638 | 0.551 | 0.356 | 0.799 | 0.936 | 0.835 | 0.898 | 0.661 |
| NCI-H2087 | 1.07 | 0.922 | 0.971 | 1.01 | 0.228 | 0.212 | 0.245 | 0.23 | – | 0.233 | 0.267 | 0.186 | 0.215 | 0.445 | 0.738 | 0.832 | 0.679 | 0.761 |
| HCC-15 | 1.05 | 1.01 | 1.07 | 0.981 | 0.769 | 0.735 | 0.7 | 0.717 | – | 0.382 | 0.371 | 0.424 | 0.283 | – | 1.06 | 1.02 | 1 | 0.979 |
| NCI-H2228 | 1.01 | 0.819 | 0.891 | 0.868 | 1.06 | 0.633 | 0.884 | 0.869 | 0.25 | 0.258 | 0.145 | 0.205 | 0.135 | 0.841 | 1 | 1.09 | 1.01 | 0.801 |
